14 compounds from ChEMBL document CHEMBL3233009, “Pyrazoles as non-classical bioisosteres in prolylcarboxypeptidase (PrCP) inhibitors” (Bioorg Med Chem Lett, 2014) can be followed below.

SMILES strings stand for the structures.

In series [1] the target is T1, Lysosomal Pro-X carboxypeptidase (Mus musculus, UniProt Q7TMR0).
T1 sequence (Q7TMR0 whole entry): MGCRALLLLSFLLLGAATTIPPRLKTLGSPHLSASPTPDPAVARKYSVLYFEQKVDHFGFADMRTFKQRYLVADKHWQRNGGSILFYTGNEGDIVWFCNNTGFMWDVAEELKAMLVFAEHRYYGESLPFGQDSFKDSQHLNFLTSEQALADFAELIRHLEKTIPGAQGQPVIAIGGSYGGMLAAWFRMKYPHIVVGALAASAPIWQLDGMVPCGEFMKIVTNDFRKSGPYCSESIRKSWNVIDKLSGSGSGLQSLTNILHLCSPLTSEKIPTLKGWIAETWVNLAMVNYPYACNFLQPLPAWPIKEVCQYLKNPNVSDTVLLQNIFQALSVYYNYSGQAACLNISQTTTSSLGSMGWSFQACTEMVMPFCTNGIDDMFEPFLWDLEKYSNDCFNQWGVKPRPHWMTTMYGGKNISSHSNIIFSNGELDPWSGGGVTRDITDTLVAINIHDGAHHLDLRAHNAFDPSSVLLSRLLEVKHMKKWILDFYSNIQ
Description: Inhibition of recombinant mouse PrCP using Mca-Ala-Pro-Lys(Dnp)-OH as substrate after 30 mins by continuous fluorometric assay.

Series [2] is described as follows: Half life in C57Bl/6 mouse at 2 mg/kg, iv and 10 mg/kg, po. In kind it is ADME, organism-based. Conditions: in vivo.
The nature of series [3]: Oral bioavailability in C57Bl/6 mouse at 10 mg/kg. The class given is ADME, organism-based. To be noted: in vivo.
A short description of series [4]: Volume of distribution in C57Bl/6 mouse at 2 mg/kg, iv and 10 mg/kg, po. The class given is ADME, organism-based. Conditions: in vivo.
Series [5] in a line: Fraction unbound in human 100% plasma. The class given is ADME, cell-free.
Series [6] can be described thus: Fraction unbound in mouse 100% plasma. In kind it is ADME, cell-free.
Series [7] in a line: Clearance in C57Bl/6 mouse at 2 mg/kg, iv and 10 mg/kg, po. Conditions: in vivo. In kind it is ADME, organism-based.
Series [8] deals with Mus musculus. Nature of the series: Dose normalized AUC in C57Bl/6 mouse at 10 mg/kg, po. To be noted: in vivo. In kind it is ADME, organism-based. Also noted: dose 10 mg/kg, route oral.
Series [9] can be described thus: Half life in C57Bl/6 mouse at 1 mg/kg, iv and 2 mg/kg, po. The class given is ADME, organism-based. Conditions: in vivo.
A short description of series [10]: Volume of distribution in C57Bl/6 mouse at 1 mg/kg, iv and 2 mg/kg, po. In kind it is ADME, organism-based. Conditions: in vivo.
A short description of series [11]: Clearance in C57Bl/6 mouse at 1 mg/kg, iv and 2 mg/kg, po. The class given is ADME, organism-based. Conditions: in vivo.
Series [12] deals with Mus musculus. Nature of the series: Dose normalized AUC in C57Bl/6 mouse at 2 mg/kg, po. In kind it is ADME, organism-based. Also noted: dose 2 mg/kg, route oral. Conditions: in vivo.
A short description of series [13]: Oral bioavailability in C57Bl/6 mouse at 2 mg/kg. In kind it is ADME, organism-based. Conditions: in vivo.

What is called IC50 is the concentration that inhibits the measured activity by half. Regarding `O=C(CN1CC[C@@H](c2cc(-c3ccc(Cl)cc3)n[nH]2)[C@H](c2ccc(F)cc2)C1)c1ccccc1`, the IC50 in series [1] is 0.03 µM.

`Fc1ccc([C@H]2CN(CCc3ccccc3)CC[C@H]2c2cc(-c3ccc(Cl)cc3)n[nH]2)cc1`: the concentration for half-maximal inhibition (IC50) in [1] was determined as 0.024 µM.

What is called half-life is how long it takes for the measured level to halve. A lower half-life goes with rapid decline. What is called bioavailability is the share of a dose that reaches the circulation, judged against a reference dose that is usually intravenous. The term fraction unbound denotes free concentration divided by total concentration. Lower therefore signals little free substance. In the case of `Cc1ccccc1[C@@H]1C[C@H](N2CCOCC2)CC[C@H]1C(=O)N1CC(c2ccccc2)(c2ccccc2)C1.O=C(O)C(F)(F)F`, the half-life in [2] is 1.7 h. In series [3], the bioavailability worked out at 7.8%. In addition, the Vd in series [4] was 10.8 L/kg. For the same compound, the unbound share (fraction unbound) in series [5] worked out at 0.02; in series [6], 0.04. The compound also showed a clearance in series [7] of 72.2 mL/min/kg. The AUC/dose in series [8] turned out to be 0.037 µM·kg·h/mg.

In the case of `Clc1ccc(-c2cc(C3(c4ccccc4)CCN(CCc4ccccc4)CC3)[nH]n2)cc1`, the fraction unbound in series [5] is 0.03; in series [6], below 0.01.

With `Clc1ccc(-c2cc([C@@H]3CC[C@@H](N4CCOCC4)C[C@H]3c3ccc(Br)cc3)[nH]n2)cc1`, in series [1], the IC50 came to 0.22 µM.

As to `O=C([C@@H]1CC[C@@H](NCc2ccc(Cl)cc2)C[C@H]1c1ccc(F)cc1)N1CC(c2ccccc2)(c2ccccc2)C1`, the half-maximal inhibitory concentration (IC50) in series [1] is 0.0047 µM.

For the compound `Fc1ccc([C@@H]2CN(Cc3ccc(Cl)cc3)CC[C@H]2c2cc(-c3ccc(Cl)cc3)n[nH]2)cc1` (racemic), the unbound share (fraction unbound) in series [5] and in series [6] was below 0.01 each time.

Consider `Fc1ccc(-c2cc(C3(c4ccccc4)CCN(CCc4ccccc4)CC3)[nH]n2)cc1`, for which the fraction unbound in series [5] was 0.07; in [6] it was below 0.01. Also, in [1], the half-inhibitory concentration (IC50) stood at 0.023 µM.

Turning to `Fc1ccc([C@@H]2CN(CCC(F)(F)F)CC[C@H]2c2cc(-c3ccc(Cl)cc3)n[nH]2)cc1` (racemic), the IC50 in [1] stood at 0.056 µM.

As to `Fc1ccc([C@@H]2CN(CCc3ccc(Cl)cc3)CC[C@H]2c2cc(-c3ccc(Cl)cc3)n[nH]2)cc1` (racemic), the IC50 in series [1] was found to be 0.02 µM.

Consider `OC(CN1CC[C@@H](c2cc(-c3ccc(Cl)cc3)n[nH]2)[C@H](c2ccc(F)cc2)C1)c1ccccc1` (some centres undefined), for which the IC50 in series [1] came to 0.0059 µM.

`Cn1nc(-c2ccc(F)cc2)cc1C1(c2ccccc2)CCN(CCc2ccccc2)CC1`: the fraction unbound in series [5] and in [6] was below 0.01 throughout. The 50% inhibitory concentration (IC50) in [1] came out at 0.0036 µM.

In series [9], `Fc1ccc([C@@H]2CN(CCc3ccccc3)CC[C@H]2c2cc(-c3ccc(Cl)cc3)n[nH]2)cc1.O=C(O)C(F)(F)F` showed a half-life of 4.8 h. For the same compound, the Vd in [10] is 13.3 L/kg. The figures for the unbound share (fraction unbound) in series [5] and in series [6] were 0.03 and below 0.01, respectively. For the same compound, the IC50 in series [1] turned out to be 0.0022 µM. This compound had a clearance in series [11] of 28.9 mL/min/kg. The AUC/dose in [12] worked out at 0.413 µM·kg·h/mg. The same compound registered a bioavailability in series [13] of 33%.

Take `Cn1nc(-c2ccc(F)cc2)cc1C1(c2ccccn2)CCN(CCc2ccccc2)CC1`: the fraction unbound in series [5] was determined as 0.01; in series [6], 0.04.
